# Data: patent publication US20250032400A1, “PERSONAL CARE COMPOSITION” (Conopco, Inc., d/b/a UNILEVER, priority 2021, published 2025)
# Assays:
# [1] = test system: hyaluronan synthase 3 (HAS3); experiment: HAS3 gene expression by RT-PCR in normal human epidermal keratinocytes incubated with actives; format: cell-based; conditions: NHEK, 24 hours, 0.05 wt % of LCC in medium
# Protocol: (§1) The normal human epidermal keratinocytes (NHEK) (Biocell, Xi'an, China) were incubated in medium together with or without actives for 24 hours. After incubation, the total RNA for each NHEK was extracted using RNAiso Plus (TaKaRa, Cat: 9108; Cat: RR036) according to manufacturer's protocol.
# (§2) The extracted RNA was quantified using Nanodrop spectrometer (Thermo Fisher Scientific, Waltham, MA, US) and reverse transcribed to generate the template cDNA using the PrimeScript II 1st Strand cDNA synthesis kit according to manufacturer's protocol. Amplification of the gene encoding the hyaluronan synthase 3 (HAS3) and CD44 was performed with RT-PCR reagent (SYBR® Premix Ex Taq™) on the ABI Vii 7 Real-Time PCR Systems (Applied Biosystems, Thermo fisher scientific, Carlsbad, CA, USA). The beta-actin gene was selected as the housekeeping gene and all data on relative expression of the target genes was normalized to beta-actin. The fold changes in expression were calculated relative to the blank control (medium having no active).
# CD44 = CD44 gene expression by RT-PCR in normal human epidermal keratinocytes incubated with actives; format: cell-based; conditions: NHEK, 24 hours, 0.05 wt % of LCC in medium
# Protocol: as §1, §2
substance,measurement,setting,value
Lysine carboxymethyl cysteinate [LCC],"HAS3 expression (fold change relative to blank control, normalized to beta-actin)",[1],0.84
same,"CD44 expression (fold change relative to blank control, normalized to beta-actin)",CD44,1.06
